Paper PMC7155171, “Probing the Open Global Health Chemical Diversity Library for Multistage-Active Starting Points for Next-Generation Antimalarials” (ACS Infectious Diseases, 2020)
Like-named read-outs stand apart in the source and are kept apart here.

Columns and labels:
[1] = system: P. falciparum Dd2 (PfLuc) line expressing firefly luciferase, asexual blood stage; assay: microbe, parasite or virus in culture; assay type: cell-based, Plasmodium falciparum; conditions: Plasmodium falciparum
P. falciparum Dd2 = assay: SYBR green I asexual blood stage proliferation assay (96 h); assay type: cell-based, Plasmodium falciparum; conditions: Plasmodium falciparum, DD2, 11-pt dose response, 96hr
[2] = DD2, read-out: CDD P. falciparum Luciferase ABS 11-pt Reconfirmation Dose Response (48hr): IC50 (μM), 11-pt dose response, 48hr
[3] = DD2, 8-pt dose response, 96hr, read-out: CDD P. falciparum Luciferase ABS 8-pt Reconfirmation Dose Response (96hr): IC50
[4] = DD2, 11-pt dose response, 48hr, read-out: CDD P. falciparum Luciferase ABS 11-pt Reconfirmation Dose Response (48hr): Maximum inhibition (%)
[5] = DD2, 11-pt dose response, 96hr, read-out: CDD P. falciparum Luciferase ABS 11-pt Reconfirmation Dose Response (96hr): IC50
[6] = DD2, 11-pt dose response, 96hr, read-out: CDD P. falciparum Luciferase ABS 11-pt Reconfirmation Dose Response (96hr): Maximum inhibition (%)
[7] = Sybr Green I, read-out: CDD P. falciparum Sybr Green I ABS 11-pt Reconfirmation Dose Response (96hr): IC50
[8] = Sybr Green I, read-out: CDD P. falciparum Sybr Green I ABS 11-pt Reconfirmation Dose Response (96hr): Maximum inhibition (%)
[9] = DD2, read-out: P. falciparum Luciferase ABS 11-pt Reconfirmation Dose Response (48hr): IC50, 11-pt dose response, 48hr
[10] = DD2, 8-pt dose response, 96hr, read-out: P. falciparum Luciferase ABS 8-pt Reconfirmation Dose Response (96hr): IC50
[11] = DD2, 8-pt dose response, 96hr, read-out: P. falciparum Luciferase ABS 8-pt Reconfirmation Dose Response (96hr): Maximum inhibition (%)
[12] = DD2, 11-pt dose response, 48hr, read-out: P. falciparum Luciferase ABS 11-pt Reconfirmation Dose Response (48hr): Maximum inhibition (%)
[13] = DD2, 11-pt dose response, 96hr, read-out: P. falciparum Luciferase ABS 11-pt Reconfirmation Dose Response (96hr): IC50
[14] = DD2, 11-pt dose response, 96hr, read-out: P. falciparum Luciferase ABS 11-pt Reconfirmation Dose Response (96hr): Maximum inhibition (%)
[15] = read-out: P. falciparum Sybr Green I ABS 11-pt Reconfirmation Dose Response (96hr): IC50
[16] = read-out: P. falciparum Sybr Green I ABS 11-pt Reconfirmation Dose Response (96hr): Maximum inhibition (%)
[17] = DD2, 8-pt dose response, 96hr, read-out: CDD P. falciparum Luciferase ABS 8-pt Reconfirmation Dose Response (96hr): Maximum inhibition (%)

Compound | IC50 [1, 2] [µM] | IC50 [1, 3] [µM] | Emax [1, 4] [%] | IC50 [1, 5] [µM] | Emax [1, 6] [%] | IC50 (P. falciparum Dd2; [7]) [nM] | Emax (P. falciparum Dd2; [8]) [%] | IC50 [1, 9] [µM] | IC50 [1, 10] [µM] | Emax [1, 11] [%] | Emax [1, 12] [%] | IC50 [1, 13] [µM] | Emax [1, 14] [%] | IC50 (P. falciparum Dd2; [15]) [nM] | Emax (P. falciparum Dd2; [16]) [%] | Emax [1, 17] [%] | IC50 ([1]; 96 h incubation, Dd2 luciferase, read-out: 96 hour Pfluc IC50) [µM]
FC(F)(F)c1cc(C2CCNCC2)nc(-c2ccsc2)n1 [DDD01058935] | > 12.5 | 0.67 | 64.4 | > 1.39 | 92.1 | 4360 | 60.5 |  |  |  |  |  |  |  |  |  | 
c1cc(N2CCC(CN3CCOCC3)CC2)c2sccc2n1 [DDD01064806] |  |  |  |  |  |  |  | 1.38 | 1.43 | 94.6 | 99.7 | 1.12 | 100 | 1150 | 100 |  | 
Cn1cc(CN2CCCC(CCc3ccccc3C(F)(F)F)C2)cn1 (centres unmarked) [DDD01243772] |  |  |  |  |  |  |  | 4.26 | 1.59 | 82.8 | 66.1 | 4.34 |  | 4890 | 62 |  | 
CCOc1ccc(Br)cc1C1CCCCN1 (centres unmarked) [DDD01034784] | > 12.5 | 0.81 | 60 | > 1.39 | 90.9 | 2780 | 65.2 |  |  |  |  |  |  |  |  | 86.8 | 
CS(=O)(=O)CCCNC1(c2cccc(Cl)c2)CCCC1 [DDD01078792] |  |  |  |  |  |  |  | > 12.5 | 1.66 | 85 | 68.8 | 3.02 | 88 | > 4160 | 73.6 |  | 
COc1ccc(CN2CCNC(=O)CC2)cc1SC(F)(F)F [DDD01074373] |  |  |  |  |  |  |  | > 4.16 | 1.28 |  | 57.7 | 0.735 | 70.4 | > 4160 | 51.3 |  | 
CC(C)(C)C(=O)NCCNCc1ccc(Cl)c2cccnc12 [DDD01070293] | > 12.5 | 1.05 | 37.6 | 1.51 | 83.4 | 2250 | 64.4 |  |  |  |  |  |  |  |  | 82 | 
CC1(C)CN(C(CNC2=NCCN2)c2ccc(Cl)cc2)CCO1 (centres unmarked) [DDD01066238] | 0.786 | 0.55 | 64.5 | 3.52 | 81.2 | 3750 | 50.5 |  |  |  |  |  |  |  |  | 80.3 | 
Cc1ccc(CN(c2cc(C)nc3nc(C(F)(F)F)nn23)C2CC2)cc1 [DDD01063654] | 2.34 | 0.37 | 89.4 | 0.45 | 99.7 | 2100 |  |  |  |  |  |  |  |  |  |  | 
Fc1cnc(N2CCCC3(CCN(Cc4ccsc4)C3)C2)nc1 (centres unmarked) [DDD01085292] | 2.31 | 1 | 68.3 | 1.53 | 92.4 | > 4160 | 70.7 |  |  |  |  |  |  |  |  | 83.3 | 
CN(CCO)C[C@@H]1CN(Cc2ccccc2-c2ccccc2)C[C@@H]1CO [DDD01252927] | 8.14 | 0.57 | 71.8 | 1.25 | 92.8 | > 1390 | 89.1 |  |  |  |  |  |  |  |  | 92 | 
CCC1CN(CC(=O)NCCN2CCCCC2)c2ccccc2S1 (centres unmarked) [DDD01025850] | 5.56 | 1.1 | 55.4 | 2.56 | 83.2 | 7990 | 74.7 |  |  |  |  |  |  |  |  | 87.2 | 
Cc1ccc2[nH]c(-c3cn(C4CCNCC4)nn3)nc2c1C [DDD01246711] | 2.21 | 0.43 | 79.2 | 2.07 | 99.2 | 4360 | 79.6 |  |  |  |  |  |  |  |  | 94.9 | 
c1cc2c(cc1C1(CNC3=NCCN3)CCCC1)OCCO2 [DDD01067440] | 8.77 | 0.57 | 68.7 | 1.63 | 92 | 1240 | 65.6 |  |  |  |  |  |  |  |  | 86.8 | 
COc1cc(CNCC(O)c2ccc(F)cc2F)cc2c1OCO2 (centres unmarked) [DDD01296730] |  |  |  |  |  |  |  | 4.89 | 1.16 | 88.4 | 87.3 | 2.48 | 98.1 | 4870 |  |  | 
CCc1cc(CNCc2ccccc2N(C)C2CCN(C)CC2)on1 [DDD01074859] | > 12.5 | 0.92 | 55.6 | 3.22 | 82 | 9570 | 72 |  |  |  |  |  |  |  |  | 83.3 | 
CO[C@H]1CN(C(C)C)C[C@@H]1NC(=O)c1cc(-c2ccccc2O)n[nH]1 [DDD01257008] |  |  |  |  |  |  |  | 7.18 | 1.29 | 94.7 | 87.1 | 3.21 | 97.2 | 4520 | 94.2 |  | 
c1ccc(-c2nc3c(c(NCc4n[nH]c5c4CCC5)n2)CCNC3)cc1 [DDD01246472] | 4.12 | 0.92 | 97.5 | 0.635 | 99.5 | 2890 | 98.2 |  |  |  |  |  |  |  |  | 92.6 | 
OCC1CCCCN1c1ccc(-c2nc(-c3ccccc3F)no2)cn1 (centres unmarked) [DDD01257937] | 1.36 | 0.46 | 83.7 | 1.23 | 89.1 | > 12500 | 41.3 |  |  |  |  |  |  |  |  | 90.5 | 
Cc1ncc(CNCCO)c2cc(C(=O)c3ccc(Br)cc3)oc12 [DDD01027290] |  |  |  |  |  |  |  | > 12.5 | 1.35 | 90.8 |  | 1.63 | 98.3 | 3320 | 63.7 |  | 
Cc1nc(C2CCNCC2)cc(N(C)Cc2cc3cc(F)ccc3[nH]2)n1 [DDD01251474] | 2.3 | 0.99 | 98.2 | 0.415 | 100 | 3200 | 90.9 |  |  |  |  |  |  |  |  | 93.3 | 
CN1[C@H](Cn2cccn2)C[C@@H]2CN(Cc3cccs3)CC[C@@H]21 [DDD01032287] | > 12.5 | 0.77 | 45.9 | > 1.39 | 85.9 | > 4160 | 67.6 |  |  |  |  |  |  |  |  | 80.2 | 
CC(NCC1CCN(CCO)CC1)c1ccc(C(F)(F)F)cc1 (centres unmarked) [DDD01073719] | 4.64 | 0.52 |  | 0.614 | 98.9 | 2650 | 92.8 |  |  |  |  |  |  |  |  | 92.5 | 0.61
Fc1ccc(F)c(CN2CCC(c3cc4ncccc4cn3)CC2)c1 [DDD01058752] | 1.07 | 0.41 | 94.1 | 0.979 | 98 | 859 | 90.5 |  |  |  |  |  |  |  |  | 96.2 | 
CN(C)[C@@H]1CCN(c2ncc(F)cn2)[C@H]1Cc1ccccc1 [DDD01033375] | 5.55 | 1.11 | 53.2 | 2.25 | 86.9 | > 4160 | 74.6 |  |  |  |  |  |  |  |  | 86.7 | 
CC(C)c1nn(C)c(Cl)c1CNCC(O)c1cccc(F)c1 (centres unmarked) [DDD01304823] | 3.48 | 0.58 | 89.6 | 1.39 | 98.7 | 3660 | 92.5 |  |  |  |  |  |  |  |  | 92.1 | 
CC(NCC1CCN(CCO)CC1)c1ccc(Cl)cc1 (centres unmarked) [DDD01073718] | 2.47 | 0.81 |  | 0.695 | 98.2 | 844 |  |  |  |  |  |  |  |  |  |  | 
